Results published in ChEMBL document CHEMBL1150845, “Two new constituents of Isodon excisus and their evaluation in an apoptosis inhibition assay” (J Nat Prod, 2001).
≈ marks a conversion by molar mass, not a printed value.

system: U-937; test: Inhibition of etoposide-induced apoptosis in human U937 cells assessed as inhibition of caspase 3 induction after 7 hrs; type: functional, cell-based; conditions: U-937, 7 h

| SMILES | IC50 |
| --- | --- |
| COc1cc(/C=C/C(=O)NC[C@@H](OC)c2ccc(O)cc2)ccc1O | 10.2 µg/mL (≈ 29.7 µM) |
| COC(=O)C[C@H](OC(=O)/C=C/c1ccc(O)c(O)c1)c1ccc(O)c(O)c1 | 52.4 µg/mL (≈ 140 µM) |
| S=C(S)N1CCCC1 [PYRROLIDINE DITHIOCARBAMATE] | 8.3 µg/mL (≈ 56.4 µM) |
